Measurements from publication PMC12542965, “Remolding laccase for whole-cell and in vivo modulation of dopamine signal” (Science Advances, 2025).

Key:
[1] = target: T1, RuCu-SLAC (remolded laccase) (Streptomyces coelicolor, UniProt Q9XAL8); assay: UV-vis quinone formation at […] nm; format: biochemical; conditions: 50 mM sodium phosphate, O2 as co-substrate, pH 6.0 to 8.0 (pH series); Ru-Cu artificial metal centre; T1 Cu quantified at 590 nm
T1 construct: gene SCO6712; artificial metalloenzyme: same apo-SLAC polypeptide (E. coli BL21(DE3), N-terminal GST tag cut off by PPase) loaded with Ru3+ then Cu2+; homodimer with one Ru and three Cu; Ru-Cu binuclear centre replaces the Cu trinuclear cluster
T1 sequence (Q9XAL8 34-343): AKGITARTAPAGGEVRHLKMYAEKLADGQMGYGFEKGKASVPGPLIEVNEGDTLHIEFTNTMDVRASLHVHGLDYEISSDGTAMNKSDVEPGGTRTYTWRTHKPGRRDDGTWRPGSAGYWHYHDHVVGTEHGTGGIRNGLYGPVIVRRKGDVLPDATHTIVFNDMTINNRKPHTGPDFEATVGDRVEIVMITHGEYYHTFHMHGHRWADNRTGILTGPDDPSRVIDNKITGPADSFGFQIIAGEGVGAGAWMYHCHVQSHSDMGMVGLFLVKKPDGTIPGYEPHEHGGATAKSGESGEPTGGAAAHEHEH

[2] = target: T2, native SLAC (bacterial small laccase) (Streptomyces coelicolor, UniProt Q9XAL8); assay: UV-vis quinone formation at […] nm; format: biochemical; conditions: 50 mM sodium phosphate, O2 as co-substrate, pH 6.0 to 8.0 (pH series); native Cu-reconstituted enzyme; T1 Cu quantified at 590 nm
T2 construct: gene SCO6712; reconstituted with CuCl2 (T1 Cu and T2/T3 Cu trinuclear cluster); trimer
T2 sequence (Q9XAL8 34-343): T1 sequence (Q9XAL8 34-343)

NCCc1ccc(O)c(O)c1 [dopamine]
Michaelis-Menten constants [1]: Michaelis-Menten constants and Kcat (turnover number) of both enzymes with a dopamine substrate | Michaelis-Menten constants [2]: Michaelis-Menten constants and Kcat (turnover number) of both enzymes with a dopamine substrate
